solubility, Activity and viability data for 36 molecules are collected here from ChEMBL document CHEMBL1955732, “Synthesis and biological evaluation of 21-arylidenepregnenolone derivatives as neuroprotective agents” (Bioorg Med Chem Lett, 2012).

Calls of active or inactive are those of the source. The rule behind the calls is not given here.

Data set [1] can be described thus: Solubility of the compound at 1 uM. The class given is physicochemical.
Data set [2] can be described thus: Solubility of the compound at 10 uM. The class given is physicochemical.
Data set [3] deals with PC-12. The data set is described as follows: Neuroprotective activity against Abeta25-35-induced […] cells assessed as cell viability at 1 uM preincubated for 2 hrs prior Abeta25-35 challenge measured after 24 hrs by MTT assay. The data set is classed as functional. Particulars: Rattus norvegicus; for viability at 1 µM: read-out: Activity. Background: Formazan colour is commonly taken as a measure of viable cells.

The subject of data set [4] is PC-12. The data set is described as follows: Neuroprotective activity against Abeta25-35-induced […] cells assessed as cell viability at 10 uM preincubated for 2 hrs prior Abeta25-35 challenge measured after 24 hrs by MTT assay. The data set is classed as functional. Particulars: Rattus norvegicus; for viability at 10 µM: read-out: Activity.
Data set [5] has as its system PC-12. The data set is described as follows: Cytotoxicity against […] cells at 10 uM after 24 hrs by MTT assay. The data set is classed as cell-based. Particulars: rat, pc-12, 24 h.
For data set [6], the system named is PC-12. The data set is described as follows: Cytotoxicity against […] cells at 1 uM after 24 hrs by MTT assay. Particulars: rat, pc-12, 24 h. The data set is classed as cell-based.

As to `C[C@]12CC[C@H]3[C@@H](CC=C4C[C@@H](O)CC[C@@]43C)[C@@H]1CC[C@@H]2C(=O)/C=C/c1ccc(Cl)cc1`, the solubility entry in data set [1] and in data set [2] was “Insoluble” throughout.

Regarding `C[C@]12CC[C@H]3[C@@H](CC=C4C[C@@H](O)CC[C@@]43C)[C@@H]1CC[C@@H]2C(=O)/C=C/c1ccc(C#N)cc1`, the solubility entry in data set [1] and in data set [2] was “Insoluble” throughout.

Regarding `C[C@]12CC[C@H]3[C@@H](C[C@@H]4O[C@@]45C[C@@H](O)CC[C@]35C)[C@@H]1CC[C@@H]2C(=O)/C=C/c1ccccc1Br`, the result in data set [3] was inactive. Also, the viability at 10 µM in data set [4] came to 61.2%.

As for `CC(C)c1ccc(/C=C/C(=O)[C@H]2CC[C@H]3[C@@H]4C[C@@H]5O[C@@]56C[C@@H](O)CC[C@]6(C)[C@H]4CC[C@]23C)cc1`, the outcome in data set [3] was inactive. Besides, the viability at 10 µM in data set [4] amounted to 49.8%. Besides, the Activity result in data set [5] is “Toxic”.

For the molecule `C[C@]12CC[C@H]3[C@@H](C[C@@H]4O[C@@]45C[C@@H](O)CC[C@]35C)[C@@H]1CC[C@@H]2C(=O)/C=C/c1ccc(Cl)cc1Cl`, in data set [3], the result was inactive. In addition, the viability at 10 µM in data set [4] was determined as 6%. Besides, the Activity result in data set [5] was “Toxic”.

Take `O=C(O[C@@H]1Cc2c(O)cc(O)cc2O[C@@H]1c1cc(O)c(O)c(O)c1)c1cc(O)c(O)c(O)c1` [EPIGALOCATECHIN GALLATE]: the viability at 10 µM in data set [4] is 65.4%.

With `C[C@]12CC[C@H]3[C@@H](C[C@@H]4O[C@@]45C[C@@H](O)CC[C@]35C)[C@@H]1CC[C@@H]2C(=O)/C=C/c1ccc(C#N)cc1`, the result in data set [3] and in data set [4] was inactive.

Turning to `CCOc1ccc(/C=C/C(=O)[C@H]2CC[C@H]3[C@@H]4CC=C5C[C@@H](O)CC[C@]5(C)[C@H]4CC[C@]23C)cc1OC`, the result in data set [3] was inactive. Also, in data set [4], the viability at 10 µM was 26.7%. Moreover, the Activity result in data set [5] was “Toxic”.

For the molecule `CC(=O)[C@H]1CC[C@H]2[C@@H]3C[C@@H]4O[C@@]45C[C@@H](O)CC[C@]5(C)[C@H]3CC[C@]12C`, the result in data set [3] and in data set [4] was inactive.

`C[C@]12CC[C@H]3[C@@H](C[C@@H]4O[C@@]45C[C@@H](O)CC[C@]35C)[C@@H]1CC[C@@H]2C(=O)/C=C/c1ccc(F)cc1`: the outcome in data set [3] was inactive. Further, the viability at 10 µM in data set [4] was 47.6%. In data set [5], the Activity entry was “Toxic”.

`C[C@]12CC[C@H]3[C@@H](C[C@@H]4O[C@@]45C[C@@H](O)CC[C@]35C)[C@@H]1CC[C@@H]2C(=O)/C=C/c1ccc(Cl)cc1`: the outcome in data set [3] was inactive. Moreover, the viability at 10 µM in data set [4] was determined as 39.1%. The Activity entry in data set [5] is recorded as “Toxic”.

As to `C[C@]12CC[C@H]3[C@@H](CC=C4C[C@@H](O)CC[C@@]43C)[C@@H]1CC[C@@H]2C(=O)/C=C/c1ccco1`, the viability at 1 µM in data set [3] came out at 52.5%. Also, the viability at 10 µM in data set [4] worked out at 36.9%. In addition, the Activity result in data set [6] and in data set [5] was “Toxic” each time.

Consider `C[C@]12CC[C@H]3[C@@H](CC=C4C[C@@H](O)CC[C@@]43C)[C@@H]1CC[C@@H]2C(=O)/C=C/c1ccccc1`, for which the result in data set [3] was inactive. Moreover, the viability at 10 µM in data set [4] amounted to 29%. For the same molecule, the Activity result in data set [5] was “Toxic”.

In the case of `CCOc1ccccc1/C=C/C(=O)[C@H]1CC[C@H]2[C@@H]3CC=C4C[C@@H](O)CC[C@]4(C)[C@H]3CC[C@]12C`, the outcome in data set [3] and in data set [4] was inactive.

On to `CC(C)c1ccc(/C=C/C(=O)[C@H]2CC[C@H]3[C@@H]4CC=C5C[C@@H](O)CC[C@]5(C)[C@H]4CC[C@]23C)cc1`, for which, in data set [3], the outcome was inactive. In data set [4], the viability at 10 µM is 34.9%. In addition, in data set [5], the Activity entry is reported as “Toxic”.

Turning to `C[C@]12CC[C@H]3[C@@H](CC=C4C[C@@H](O)CC[C@@]43C)[C@@H]1CC[C@@H]2C(=O)/C=C/c1ccccc1F`, the viability at 1 µM in data set [3] turned out to be 53.1%. The viability at 10 µM in data set [4] is 38.3%. Further, the Activity result in data set [6] and in data set [5] was “Toxic” each time.

Turning to `COc1ccc(/C=C/C(=O)[C@H]2CC[C@H]3[C@@H]4C[C@@H]5O[C@@]56C[C@@H](O)CC[C@]6(C)[C@H]4CC[C@]23C)cc1`, in data set [3], the outcome was inactive. Further, the viability at 10 µM in data set [4] was determined as 29.6%. Further, in data set [5], the Activity result is listed as “Toxic”.

On to `C[C@]12CC[C@H]3[C@@H](CC=C4C[C@@H](O)CC[C@@]43C)[C@@H]1CC[C@@H]2C(=O)/C=C/c1ccccc1Br`, for which the outcome in data set [3] and in data set [4] was inactive.

As for `C[C@]12CC[C@H]3[C@@H](C[C@@H]4O[C@@]45C[C@@H](O)CC[C@]35C)[C@@H]1CC[C@@H]2C(=O)/C=C/c1ccco1`, the result in data set [3] was inactive. The viability at 10 µM in data set [4] came out at 82.7%.

Take `C[C@]12CC[C@H]3[C@@H](C[C@@H]4O[C@@]45C[C@@H](O)CC[C@]35C)[C@@H]1CC[C@@H]2C(=O)/C=C/c1ccccn1`: in data set [3], the result was inactive. Moreover, the viability at 10 µM in data set [4] stood at 29.7%. Moreover, in data set [5], the Activity result is listed as “Toxic”.

As for `CC(=O)[C@H]1CC[C@H]2[C@@H]3CC=C4C[C@@H](O)CC[C@]4(C)[C@H]3CC[C@]12C`, the outcome in data set [3] and in data set [4] was inactive.

As for `COc1ccc(/C=C/C(=O)[C@H]2CC[C@H]3[C@@H]4CC=C5C[C@@H](O)CC[C@]5(C)[C@H]4CC[C@]23C)cc1`, the outcome in data set [3] was inactive. Besides, in data set [4], the viability at 10 µM is 25.7%. Moreover, the Activity entry in data set [5] was “Toxic”.

For the molecule `COc1cccc(/C=C/C(=O)[C@H]2CC[C@H]3[C@@H]4C[C@@H]5O[C@@]56C[C@@H](O)CC[C@]6(C)[C@H]4CC[C@]23C)c1`, the result in data set [3] and in data set [4] was inactive.

With `CCOc1ccc(/C=C/C(=O)[C@H]2CC[C@H]3[C@@H]4C[C@@H]5O[C@@]56C[C@@H](O)CC[C@]6(C)[C@H]4CC[C@]23C)cc1OC`, the viability at 1 µM in data set [3] came to 61.1%. In addition, in data set [4], the result was inactive.

Turning to `C[C@]12CC[C@H]3[C@@H](CC=C4C[C@@H](O)CC[C@@]43C)[C@@H]1CC[C@@H]2C(=O)/C=C/c1ccc(F)cc1`, in data set [3], the result was inactive. Further, the viability at 10 µM in data set [4] was determined as 32.6%. In addition, the Activity result in data set [5] is reported as “Toxic”.

For `C[C@]12CC[C@H]3[C@@H](C[C@@H]4O[C@@]45C[C@@H](O)CC[C@]35C)[C@@H]1CC[C@@H]2C(=O)/C=C/c1cccc([N+](=O)[O-])c1`, in data set [3], the result was inactive. Besides, in data set [4], the viability at 10 µM stood at 31.3%. Besides, the Activity result in data set [5] is recorded as “Toxic”.

As for `C[C@]12CC[C@H]3[C@@H](CC=C4C[C@@H](O)CC[C@@]43C)[C@@H]1CC[C@@H]2C(=O)/C=C/c1ccc(Cl)cc1Cl`, the result in data set [3] was inactive. The viability at 10 µM in data set [4] is 34.5%. Also, in data set [5], the Activity entry is “Toxic”.

On to `C[C@]12CC[C@H]3[C@@H](CC=C4C[C@@H](O)CC[C@@]43C)[C@@H]1CC[C@@H]2C(=O)/C=C/c1cccc([N+](=O)[O-])c1`, for which the viability at 1 µM in data set [3] is 51.2%. Moreover, in data set [4], the viability at 10 µM worked out at 37.8%. Further, the Activity result in data set [6] and in data set [5] was “Toxic” in each case.

Take `C[C@]12CC[C@H]3[C@@H](CC=C4C[C@@H](O)CC[C@@]43C)[C@@H]1CC[C@@H]2C(=O)/C=C/c1ccccc1C(F)(F)F`: the result in data set [3] and in data set [4] was inactive.

On to `C[C@]12CC[C@H]3[C@@H](C[C@@H]4O[C@@]45C[C@@H](O)CC[C@]35C)[C@@H]1CC[C@@H]2C(=O)/C=C/c1ccccc1`, for which the viability at 1 µM in data set [3] amounted to 64.8%. The viability at 10 µM in data set [4] was 70.5%.

`Cc1ccccc1/C=C/C(=O)[C@H]1CC[C@H]2[C@@H]3C[C@@H]4O[C@@]45C[C@@H](O)CC[C@]5(C)[C@H]3CC[C@]12C`: the outcome in data set [3] was inactive. Also, in data set [4], the viability at 10 µM is 49.9%. Besides, the Activity entry in data set [5] is reported as “Toxic”.

With `C[C@]12CC[C@H]3[C@@H](CC=C4C[C@@H](O)CC[C@@]43C)[C@@H]1CC[C@@H]2C(=O)/C=C/c1ccccn1`, the outcome in data set [3] and in data set [4] was inactive.

Regarding `COc1cccc(/C=C/C(=O)[C@H]2CC[C@H]3[C@@H]4CC=C5C[C@@H](O)CC[C@]5(C)[C@H]4CC[C@]23C)c1`, the viability at 1 µM in data set [3] turned out to be 50.3%. Moreover, in data set [4], the viability at 10 µM was determined as 44%. Besides, the Activity entry in data set [6] and in data set [5] was “Toxic” in each case.

Turning to `C[C@]12CC[C@H]3[C@@H](C[C@@H]4O[C@@]45C[C@@H](O)CC[C@]35C)[C@@H]1CC[C@@H]2C(=O)/C=C/c1ccccc1C(F)(F)F`, the result in data set [3] and in data set [4] was inactive.

As to `C[C@]12CC[C@H]3[C@@H](C[C@@H]4O[C@@]45C[C@@H](O)CC[C@]35C)[C@@H]1CC[C@@H]2C(=O)/C=C/c1ccc(Br)cc1`, the viability at 1 µM in data set [3] was determined as 50.1%. Moreover, in data set [4], the viability at 10 µM is 32.5%. Moreover, the Activity result in data set [6] and in data set [5] was “Toxic” throughout.

On to `C[C@]12CC[C@H]3[C@@H](C[C@@H]4O[C@@]45C[C@@H](O)CC[C@]35C)[C@@H]1CC[C@@H]2C(=O)/C=C/c1ccccc1F`, for which the result in data set [3] was inactive. Besides, the viability at 10 µM in data set [4] turned out to be 36.7%. For the same molecule, the Activity entry in data set [5] is “Toxic”.
